# Test results as given in patent publication US20060063747A1, “Paroxetine cholate or cholic acid derivative salts, and composition comprising paroxetine and cholic acid or derivative thereof” (priority 2004, published 2006).
# Structures can show the parent of a compound that is named as a salt.
# Experiment: Stability comparison under severe conditions (0.3% hydrogen peroxide, 80° C., content by HPLC)
# Type: physicochemical
# Details: for Drug content, 24 hrs / Drug content, 48 hrs / Drug content, 120 hrs / Drug content, Initial / Drug content, 72 hrs / Drug content, 144 hrs: 1 mg/mL in 0.3% hydrogen peroxide, chamber at 80° C.
# Procedure: Each of the drugs shown in Table 5 was completely dissolved in a 0.3% hydrogen peroxide solution at a concentration of 1 mg/mL. While storage under stressed conditions at 80° C., changes in the contents of the drugs were monitored. The 0.3% hydrogen peroxide solution is a solution commonly used to quickly determine the stability of drugs and provides stressed conditions for artificial acceleration of the oxidation of the drugs. The content analysis was conducted by HPLC in accordance with the paroxetine content analysis defined in USP.
Molecule,"Drug content, 24 hrs [%]","Drug content, 48 hrs (hydrochloride) [%]","Drug content, 120 hrs (hydrochloride) [%]","Drug content, Initial [%]","Drug content, 48 hrs [%]","Drug content, 120 hrs [%]","Stability compared to other paroxetine salts (in words) (0.3% hydrogen peroxide, 80° C., HPLC)","Drug content, 72 hrs [%]","Drug content, 144 hrs [%]"
"Fc1ccc([C@@H]2CCNC[C@H]2COc2ccc3c(c2)OCO3)cc1 [Paroxetine HCl, paroxetine hydrochloride]",84.5,53.8,13.4,100.0,,,,,
Fc1ccc([C@@H]2CCNC[C@H]2COc2ccc3c(c2)OCO3)cc1.O=C(O)[C@H]1OC(O)[C@H](O)[C@@H](O)[C@@H]1O [Paroxetine glucuronate],92.8,,,100.0,59.0,12.3,,,
"C[C@H](CCC(=O)NCC(=O)O)[C@H]1CC[C@H]2[C@@H]3[C@H](O)C[C@@H]4C[C@H](O)CC[C@]4(C)[C@H]3C[C@H](O)[C@]12C.Fc1ccc([C@@H]2CCNC[C@H]2COc2ccc3c(c2)OCO3)cc1 [Paroxetine glycocholate, paroxetine glycocholate]",96.8,,,100.0,89.6,54.3,highly stable,,
Fc1ccc([C@@H]2CCNC[C@H]2COc2ccc3c(c2)OCO3)cc1.O=S(=O)(O)c1ccc2ccccc2c1 [Paroxetine napsylate],60.4,,,100.0,,,,16.1,3.5
Fc1ccc([C@@H]2CCNC[C@H]2COc2ccc3c(c2)OCO3)cc1.Fc1ccc([C@@H]2CCNC[C@H]2COc2ccc3c(c2)OCO3)cc1.O.O=C(O)C(O)C(O)C(=O)O.O=C(O)C(O)C(O)C(=O)O [Paroxetine tartarate],81.3,,,100.0,,,,28.3,4.8
paroxetine methanesulfonate,74.4,,,100.0,31.8,,,16.6,
